Measurements published in article PMC8216263 (Pharmaceutical Biology, 2021).
Where two headings read alike, the source gives them in different places.

Assay: Single- and multiple-dose plasma pharmacokinetics of GA and PCA after oral RLQ in healthy subjects
Assay type: in vivo, human
Details: for AUC(0-inf) / AUC(0-t) / Vd/F / k el / half-life: 8 g; for Vd/F: read-out: Vz/F; for k el: read-out: ke (converted)
Experimental: The study protocol was approved by the Ethics Committee of the Second Affiliated Hospital of Tianjin University of Traditional Chinese Medicine. […] Subjects were offered standard meals at 4 and 10 h after dosing. Water was not permitted during the hour before and the hour after dosing, except for 240 mL administered with dosing; additional water intake was allowed at all other times.
In the single-dose study, 8 g of RLQ was administered orally on day 1. A 7-d washout time was designed between single-dose and multiple-dose pharmacokinetic studies. In the multiple-dose study, subjects received multiple doses of RLQ (8 g, t.i.d.) for seven consecutive days from day 8 to day 14 and a single dose of RLQ (8 g) on the morning of day 15. […] Additional pre-dose samples were collected in the morning on days 12, 13 and 14. […] All samples were stored at −80 °C until analysis.
All analytes were extracted from plasma and urine samples by simple protein precipitation extraction method using acetonitrile. Briefly, 5 µL of internal standard solution and 300 μL of acetonitrile were added to the spiked blank matrix (100 μL) and vortexed for 3 min and then centrifuged at 13,000 × g for 10 min. The supernatant was transferred and dried using a flow of nitrogen. The residue was re-dissolved in 100 µL of 10% methanol solution containing 0.1% formic acid. An aliquot of 5 µL solution was injected into the LC-MS/MS system for analysis.
The chromatographic separation was performed on an Acquity Ultra Performance LC instrument (Waters, Milford, MA) with a gradient programme in an ACQUITY UPLC BEH C18 column (2.1 mm × 100 mm, 1.7 μm). […] The injection volume was 2 µL. The mass spectrometry analysis was performed on an AB Sciex Triple Quad 5500 MS (Framingham, MA) equipped with an ESI source.
The peak plasma concentration (Cmax) and time to reach the peak plasma concentration (Tmax) were calculated from the actual plasma concentration data. The area under the plasma concentration-time curve from zero to the last measurable concentration (AUC0–t) was calculated via the linear trapezoidal rule. AUC0–∞ was calculated using the following formula: AUC0–∞ = AUC0–t + Ct/ke, where Ct is the last plasma concentration measured. […] The accumulation index was calculated as AUCss/AUC0–t.

[1] = both sexes, human, plasma, oral, human plasma, multiple dose RLQ 8 g
[2] = both sexes, human, plasma, oral, human plasma, multiple dose RLQ 8 g, read-out: AUC0–t
[3] = both sexes, human, plasma, oral, human plasma, single dose RLQ 8 g
[4] = both sexes, human, plasma, oral, human plasma, single dose RLQ 8 g, read-out: AUC0–t
[5] = both sexes, human, plasma, oral, multiple dose RLQ 8 g
[6] = both sexes, human, plasma, oral, multiple dose RLQ 8 g, read-out: t1/2 (converted)
[7] = both sexes, human, plasma, oral, single dose RLQ 8 g
[8] = both sexes, human, plasma, oral, single dose RLQ 8 g, read-out: t1/2 (converted)
[9] = both sexes, human, plasma, oral, single dose RLQ 8 g, median (range), read-out: tmax
[10] = both sexes, human, plasma, po, abstract summary, oral RLQ, read-out: half-life
[11] = both sexes, oral, human plasma, multiple dose RLQ 8 g t.i.d. 7 d then single dose, means ± SD, read-out: Cmax
[12] = both sexes, human plasma, single oral dose RLQ 8 g, means ± SD, read-out: Cmax
[13] = human, plasma, oral, single dose RLQ 8 g, female subjects n = 6, read-out: Cmax in women
[14] = human, plasma, oral, single dose RLQ 8 g, male subjects n = 6, read-out: Cmax in men
[15] = multiple dose RLQ 8 g, median (range)

Structure (SMILES) | time to absorption into the blood after administration (abstract summary, oral RLQ) [h] | AUC(0-inf) [1] [ng·h/mL] | AUC(0-t) [2] [ng·h/mL] | AUC(0-inf) [3] [ng·h/mL] | AUC(0-t) [4] [ng·h/mL] | Vd/F [5] [L] | k el [5] [s⁻¹] | half-life [6] [min] | Vd/F [7] [L] | k el [7] [s⁻¹] | half-life [8] [min] | tmax [9] [min] | half-life [10] [min] | Cmax [11] [ng/mL] | Cmax [12] [ng/mL] | Cmax [13] [ng/mL] | Cmax [14] [ng/mL] | CL/F (multiple dose RLQ 8 g) [L/h] | tmax [15] | CL/F (single dose RLQ 8 g) [L/h] | other results
O=C(O)c1cc(O)c(O)c(O)c1 [GA, gallic acid] | ≤ 1 | 209 ± 63.5 | 205 ± 62.8 | 256 ± 74.9 | 251 ± 74.4 | 292 ± 113 | 0.00015 | 80.4 ± 19.2 | 241 ± 82.7 | 0.000147 | 82.2 ± 22.2 | 45 | < 120 | 118 ± 39.5 | 139 ± 49.4 | 176 | 102 | 152 ± 51.6 | 0.75 (0.75, 1) h | 124 ± 42.0 | AUC(0-t) (female, human, plasma, oral, single dose RLQ 8 g, female subjects, read-out: AUC0–t in women): 301 ± 46.3 ng·h/mL; AUC(0-t) (male, human, plasma, oral, single dose RLQ 8 g, male subjects, read-out: AUC0–t in men): 201 ± 63.3 ng·h/mL; Vz/F and CL/F, females versus males (p < 0.05): significantly lower levels in females than in males
O=C(O)c1ccc(O)c(O)c1 [PCA, protocatechuic acid] | ≤ 1 | 3.09 ± 0.9 | 2.81 ± 0.81 | 3.64 ± 1.35 | 3.2 ± 1.17 | 139 ± 46.1 | 0.000789 | 15.6 ± 4.8 | 158 ± 101 | 0.000672 | 19.8 ± 8.4 | 19.8 | < 120 | 5.45 ± 1.58 | 6.06 ± 2.28 | 7.58 | 4.54 | 379 ± 119 | 0.33 (0.17, 0.5) h | 337 ± 135 | response in human plasma and urine samples (LC-MS/MS after oral RLQ): relatively high response; accumulation ratio (AUCss/AUC0–t) (after multiple doses, median (range)): 1.04 (0.56–1.51)
